The subject of one data set is HepG2 cells. As to the method:
CYP3A4 and P450 reductase were delivered into HepG2 cells (Hep-3A4) by adenoviral transduction at Multiplicity of Infection (MOI)=8. […] The adenovirus Ad-mock was used to transduce HepG2 cells at MOI=8 as control (Hep-mock). CYP3A4 activity was determined and compared in Hep-3A4 cells and cryopreserved human hepatocytes.

The test system of data set [1] is cryopreserved human hepatocytes.
The subject of data set [2] is antioxidant responsive element (ARE). Put plainly: ARE luciferase reporter induction in adenovirus-P450-transduced ARE32 (MCF-7/ARE) cells. The class given is cell-based, human. The conditions noted are these: BHA 20 μM; for ARE reporter induction: 7-EC 100 μM; for induction of the ARE reporter: MCF-7 control cells or in the presence of CYP3A4 or CYP2D6, 7-E 100 μM. As to the method: ARE32 cells were seeded in 24-well plates at 2×10^5 cells per well and cultured overnight. Cells were transduced for 2 h with up to three Adeno-P450s at MOI value of 27 pfu/cell in 0.5 ml of culture medium, after which the medium was removed and replaced with fresh medium. Cells were incubated for an additional 48 h and then were treated with chemicals in serum-free medium for 1 day. Then cells were harvested and lysed. The Luciferase Reporter Assay System (Promega) was used to examine reporter gene activity in cell lysates.
In cell line ARE32, the antioxidant responsive element (ARE), activated by Nrf2, is used to drive a luciferase gene as reporter. A functional ARE is found in the 5′ flanking region of genes encoding NQO1, multiple GST isozymes and many other anticarcinogenic/antioxidant genes. Induction of these genes confers cytoprotection against carcinogenesis and acts to minimize the effects of the toxic insult. Therefore, measurement of ARE induction provides useful information into the particular mechanism of toxicity. […] ARE32 control values are from ARE32 cells without virus infection. ARE32 Transduced values are from ARE32 cells infected with three viruses: Ad3A4.F2A.CPR; Ad2D6(His)CPR; and Ad2A6.F2A.1A1 at a total MOI value of 27.
In further experiments, we examined induction of the ARE reporter in MCF-7 cells expressing CYP3A4 and CPR, CYP2A6 and CPR, CYP2D6 and CPR or CYP2A6 and CYP1A1 by either butylated hydroxyanisole, an antioxidant widely used as a food preservative (BHA-20 μM) or 7-ethoxycoumarin, an antioxidant (7-E-100 μM).
With reference to FIG. 5, expression of the luciferase reporter readout is evaluated in comparison to control MCF-7/ARE cells not expressing P450 transgenes (first bar=1).
Butylated hydroxyanisole (BHA) is an antioxidant used as a food additive (E320). […] We examined induction of the ARE reporter in ARE32 cells expressing CYP3A4 and CPR, CYP2A6 and CPR, CYP2D6 and CPR or CYP2A6 and CYP1A1 by either butylated hydroxyanisole (BHA) at 20 μM or 7-ethoxycoumarin (7-EC) at 100 μM (FIG. 8).
Background: A reporter such as luciferase makes a cellular process visible.

The mark [3] stands for this setting: ARE32 cells expressing CYP3A4 or CYP2D6 (with CPR).

Consider `CC(=O)Nc1ccc(O)cc1` [acetaminophen], for which the “effect of glutathione depletion by BSO on cytotoxicity” value with HepG2 cells (100 μM BSO, Hep-3A4 and Hep-mock cells) was “significant sensitisation”. Moreover, in the data set with HepG2 cells (100 μM BSO, Hep-3A4 vs Hep-mock, at the concentrations used), the “additional CYP3A4 related cytotoxic effect under glutathione depletion” value is listed as “no apparent additional CYP3A4 related cytotoxic effect”. Moreover, the “cell viability (ATP depletion assay)” value with HepG2 cells (Hep-3A4 and Hep-mock cells) is reported as “dose-dependent decrease in cell viability”. Further, the “concentration at which CYP3A4-related toxic activation was observed” value in the data set with HepG2 cells (Hep-3A4 vs Hep-mock) stood at 10000 µM.
For `CC/C(=C(\c1ccccc1)c1ccc(OCCN(C)C)cc1)c1ccccc1` [tamoxifen], the “cell viability (ATP depletion assay)” value is “dose-dependent decrease in cell viability” with HepG2 cells (Hep-3A4 and Hep-mock cells); “dose-dependent decrease in cell viability” in data set [1].
`CCOc1ccc2ccc(=O)oc2c1` [7-ethoxycoumarin]: the results for the ARE reporter induction entry in data set [2] (ARE32 cells expressing CYP2A6) and in data set [2] (setting [3]) were “Significant ARE reporter induction” and “not with CYP3A4 or CYP2D6”, respectively. The “induction of the ARE reporter” value in data set [2] is “little or no induction”.
The matching figures for `COc1ccc(O)c(C(C)(C)C)c1` [BHA, butylated hydroxyanisole]: “Significant ARE reporter induction”, “not with CYP3A4 or CYP2D6” and “little or no induction”.
